Source: patent US7893074B2, “2, 4-pyrimidinediamines useful in the treatment of neoplastic diseases, inflammatory and immune system disorders” (Novartis AG, priority 2003, dated 2011)
Like-named read-outs stand apart in the source and are kept apart here.

Key:
[1] = system: Mouse mammary carcinoma 4T1 cells; experiment: Anchorage-independent tumor cell growth assay; assay type: cell-based
Experimental: Cells are cultured for 2 h and inhibitors are added at various concentrations in a final concentration of 0.1% DMSO. After 48 h, cell growth is assayed with the cell counting kit-8 (Wako Pure Chemical), which uses a water soluble tetrazolium salt WST8. Twenty μL of the reagent is added into each well and cells are further cultured for 2 h. The optical density is measured at 450 nm.

[2] = target: Focal Adhesion Kinase (FAK) (Homo sapiens, UniProt Q05397); experiment: FAK assay system (Focal Adhesion Kinase inhibition); assay type: biochemical; conditions: read-out: FAK IC50
[3] = target: FAK (Mus musculus, UniProt P34152); experiment: Phos IC50 (phosphorylation); assay type: cell-based
Chain of FAK (P34152 2-1052): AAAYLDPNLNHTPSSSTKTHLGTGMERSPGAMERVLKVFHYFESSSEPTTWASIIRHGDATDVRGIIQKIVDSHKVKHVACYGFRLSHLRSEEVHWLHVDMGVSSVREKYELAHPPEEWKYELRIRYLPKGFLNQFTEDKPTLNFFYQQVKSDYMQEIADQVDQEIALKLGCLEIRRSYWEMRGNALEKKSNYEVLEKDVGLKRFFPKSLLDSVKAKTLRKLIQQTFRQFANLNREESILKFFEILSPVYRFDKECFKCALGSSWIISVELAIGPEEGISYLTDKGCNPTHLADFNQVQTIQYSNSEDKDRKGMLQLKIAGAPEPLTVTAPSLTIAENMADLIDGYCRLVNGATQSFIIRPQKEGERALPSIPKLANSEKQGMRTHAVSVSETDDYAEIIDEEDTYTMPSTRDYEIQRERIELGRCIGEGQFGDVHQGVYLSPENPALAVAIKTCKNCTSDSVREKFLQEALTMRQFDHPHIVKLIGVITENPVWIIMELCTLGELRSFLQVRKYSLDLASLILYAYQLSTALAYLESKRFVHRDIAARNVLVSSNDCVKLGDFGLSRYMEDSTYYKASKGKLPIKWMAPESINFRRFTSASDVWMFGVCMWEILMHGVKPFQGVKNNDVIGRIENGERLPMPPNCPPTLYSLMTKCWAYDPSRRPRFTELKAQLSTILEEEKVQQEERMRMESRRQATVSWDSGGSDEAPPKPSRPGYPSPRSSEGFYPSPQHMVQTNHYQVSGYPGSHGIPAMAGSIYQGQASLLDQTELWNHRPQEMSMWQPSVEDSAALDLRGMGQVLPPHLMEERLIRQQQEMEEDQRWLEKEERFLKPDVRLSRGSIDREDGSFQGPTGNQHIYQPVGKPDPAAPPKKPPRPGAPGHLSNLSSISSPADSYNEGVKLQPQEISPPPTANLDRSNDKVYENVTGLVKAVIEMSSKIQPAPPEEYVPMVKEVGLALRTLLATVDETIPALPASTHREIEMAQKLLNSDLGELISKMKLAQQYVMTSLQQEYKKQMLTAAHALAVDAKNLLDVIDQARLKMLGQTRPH

Chain of Focal Adhesion Kinase (FAK) (Q05397 384-706): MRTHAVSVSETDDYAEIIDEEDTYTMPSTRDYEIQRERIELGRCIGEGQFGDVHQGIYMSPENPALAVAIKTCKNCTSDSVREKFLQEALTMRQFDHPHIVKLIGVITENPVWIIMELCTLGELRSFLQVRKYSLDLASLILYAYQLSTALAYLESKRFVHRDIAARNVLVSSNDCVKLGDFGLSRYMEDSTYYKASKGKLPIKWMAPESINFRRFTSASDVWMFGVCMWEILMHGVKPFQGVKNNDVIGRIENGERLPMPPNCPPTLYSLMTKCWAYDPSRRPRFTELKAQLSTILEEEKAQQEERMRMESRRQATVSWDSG

SMILES	IC50 ([1]; Mus musculus, 4T1) [µM]	IC50 [2] [µM]	IC50 [3] [µM]	IC50 [1] [µM]
CCCS(=O)(=O)c1ccccc1Nc1nc(Nc2ccc(N3CCC[C@@H](C(N)=O)C3)cc2OC)ncc1Cl [Example 26-13]	0.44	0.0016	0.2	–
CCCS(=O)(=O)c1ccccc1Nc1nc(Nc2ccc(NCCN3CCOCC3)cc2OC)ncc1Cl [Example 26-16]	2	0.009	0.32	–
CCCS(=O)(=O)c1ccccc1Nc1nc(Nc2ccc(OCCN3CCCC3=O)cc2OC)ncc1Cl [Example 26-18]	–	0.0013	6	1.17
CCCS(=O)(=O)c1ccccc1Nc1nc(Nc2ccc(C(=O)N3CCN(C(C)=O)CC3)cc2OC)ncc1Cl [Example 26-19]	0.79	0.0092	0.43	–
CCCS(=O)(=O)c1ccccc1Nc1nc(Nc2ccc(N3CCNC(=O)C3)cc2OC)ncc1Cl [Example 26-22]	–	< 0.001	0.1	0.28
CCCS(=O)(=O)c1ccccc1Nc1nc(Nc2ccc(N3CCC(NC)C3)cc2OC)ncc1Cl (stereo not drawn) [Example 26-25]	–	< 0.001	0.6	0.73
CCCS(=O)(=O)c1ccccc1Nc1nc(Nc2ccc(N3CCC(CO)CC3)cc2OC)ncc1Cl [Example 26-27]	–	0.0048	0.6	1.49
CCCS(=O)(=O)c1ccccc1Nc1nc(Nc2ccc(N3CCC(O)C3)cc2OC)ncc1Cl (stereo not drawn) [Example 26-28]	–	0.0021	0.5	1.52
CCCS(=O)(=O)c1ccccc1Nc1nc(Nc2ccc(N3CCC(N4CCCC4)CC3)cc2OC)ncc1Cl [Example 26-29]	0.26	< 0.001	0.31	–
CCCS(=O)(=O)c1ccccc1Nc1nc(Nc2ccc(F)cc2OC)ncc1Cl [Example 26-30]	0.76	0.0044	1	–
CCS(=O)(=O)c1ccccc1Nc1nc(Nc2ccc(N3CCOCC3)cc2OC)ncc1Cl [Example 27-1]	0.47	0.014	0.06	–
CCS(=O)(=O)c1ccccc1Nc1nc(Nc2ccc(N3CCC(N4CCCCC4)CC3)cc2OC)ncc1Cl [Example 27-2]	1.1	0.0051	0.5	–
CCS(=O)(=O)c1ccccc1Nc1nc(Nc2ccc(-n3cncn3)cc2OC)ncc1Cl [Example 27-3]	0.56	0.0063	> 10	–
CCS(=O)(=O)c1ccccc1Nc1nc(Nc2ccc(N3CCC(N4CCOCC4)CC3)cc2OC)ncc1Cl [Example 27-4]	0.27	0.011	0.1	–
CCS(=O)(=O)c1ccccc1Nc1nc(Nc2ccc(N3CCN(C(C)=O)CC3)cc2OC)ncc1Cl [Example 27-5]	0.3	0.0082	0.04	–
CCS(=O)(=O)c1ccccc1Nc1nc(Nc2ccc(N3CCCC(C(N)=O)C3)cc2OC)ncc1Cl (stereo not drawn) [Example 27-6]	0.31	0.001	0.08	–
CCS(=O)(=O)c1ccccc1Nc1nc(Nc2ccc(CN3CCN(C)CC3)cc2OC)ncc1Cl [Example 27-7]	0.57	0.0055	2	–
CCS(=O)(=O)c1ccccc1Nc1nc(Nc2ccc(N3CCC[C@@H](C(N)=O)C3)cc2OC)ncc1Cl [Example 27-8]	0.75	0.0093	0.6	–
CCS(=O)(=O)c1ccccc1Nc1nc(Nc2ccc(N3CCC(N4CCN(C)CC4)CC3)cc2OC)ncc1Cl [Example 27-9]	0.36	0.0042	0.5	–
COc1cc(N2CCOCC2)ccc1Nc1ncc(Cl)c(Nc2ccccc2S(=O)(=O)C(C)C)n1 [Example 28-3]	0.29	0.0074	0.07	–

SMILES	IC50 ([1]; Mus musculus, 4T1) [µM]	IC50 [2] [µM]	IC50 [3] [µM]	IC50 [1] [µM]
COc1cc(-n2cncn2)ccc1Nc1ncc(Cl)c(Nc2ccccc2S(=O)(=O)C(C)C)n1 [Example 28-4]	0.3	0.0075	0.3	–
Cc1cc(N2CCOCC2)ccc1Nc1ncc(Cl)c(Nc2ccccc2S(=O)(=O)C(C)C)n1 [Example 28-6]	0.56	0.017	0.6	–
COc1cc(N2CCC(N3CCCCC3)CC2)ccc1Nc1ncc(Cl)c(Nc2ccccc2S(=O)(=O)C(C)C)n1 [Example 28-8]	0.37	0.0046	0.4	–
COc1cc(N2CCC(N3CCCC3)CC2)ccc1Nc1ncc(Cl)c(Nc2ccccc2S(=O)(=O)C(C)C)n1 [Example 28-9]	0.36	0.0031	0.5	–
COCC1CCN(c2ccc(Nc3ncc(Cl)c(Nc4ccccc4S(=O)(=O)C(C)C)n3)c(OC)c2)CC1 [Example 28-10]	–	0.02	3	1.85
COc1cc(N2CCN(C(C)=O)CC2)ccc1Nc1ncc(Cl)c(Nc2ccccc2S(=O)(=O)C(C)C)n1 [Example 28-11]	–	0.0042	0.5	0.63
COc1cc(N2CCN(C(C)C)CC2)ccc1Nc1ncc(Cl)c(Nc2ccccc2S(=O)(=O)C(C)C)n1 [Example 28-14]	1.44	0.003	0.1	–
COc1cc(N2CCC(C(N)=O)CC2)ccc1Nc1ncc(Cl)c(Nc2ccccc2S(=O)(=O)C(C)C)n1 [Example 28-15]	0.69	0.01	0.5	–
COc1cc(N2CCC(OC)C2)ccc1Nc1ncc(Cl)c(Nc2ccccc2S(=O)(=O)C(C)C)n1 (stereo not drawn) [Example 28-17]	1.9	0.015	0.16	–
COc1cc(N2CCC(OC)CC2)ccc1Nc1ncc(Cl)c(Nc2ccccc2S(=O)(=O)C(C)C)n1 [Example 28-18]	2.03	0.0091	> 10	–
CNC1CCN(c2ccc(Nc3ncc(Cl)c(Nc4ccccc4S(=O)(=O)C(C)C)n3)c(OC)c2)C1 (stereo not drawn) [Example 28-21]	0.23	0.0013	0.1	–
COc1cc(N2CCC(N(C)C)C2)ccc1Nc1ncc(Cl)c(Nc2ccccc2S(=O)(=O)C(C)C)n1 (stereo not drawn) [Example 28-22]	0.3	0.0013	0.1	–
COc1cc(N2CCN(C)C(=O)C2)ccc1Nc1ncc(Cl)c(Nc2ccccc2S(=O)(=O)C(C)C)n1 [Example 28-23]	0.28	0.0059	0.5	–
COc1cc(N2CCC(N3CCNCC3)CC2)ccc1Nc1ncc(Cl)c(Nc2ccccc2S(=O)(=O)C(C)C)n1 [Example 28-25]	0.13	0.0039	0.04	–
COc1cc(N2CCN3COCC[C@H]3C2)ccc1Nc1ncc(Cl)c(Nc2ccccc2S(=O)(=O)C(C)C)n1 [Example 28-26]	0.57	0.0066	0.2	–
COc1cc(OC)c(OC)cc1Nc1ncc(Cl)c(Nc2ccccc2S(=O)(=O)C(C)C)n1 [Example 28-30]	0.11	0.0023	0.9	–
CC(C)S(=O)(=O)c1ccccc1Nc1nc(Nc2cccc3c2OCC3)ncc1Cl [Example 28-31]	1.06	0.0074	0.06	–
CCC(CC)S(=O)(=O)c1ccccc1Nc1nc(Nc2ccc(N3CCC(N4CCCCC4)CC3)cc2OC)ncc1Cl [Example 29-2]	1.1	0.0033	0.7	–
CCC(CC)S(=O)(=O)c1ccccc1Nc1nc(Nc2ccc(N3CCN(C(C)=O)CC3)cc2OC)ncc1Cl [Example 29-3]	0.99	0.0056	0.1	–
